Numbered stars: 1 amine (or outer) side, 2 acyl side, 3 side chain; on linkers, the order of the positions; unused ones are H or OH. Square brackets hold non-standard residues; d marks the D form. Side chains are listed from the residue outwards. Peptide text beside a SMILES is read from it. * marks the point of attachment. γGlu = O=C(O)[C@H](CCC(=O)[*:2])N[*:1]; Stearoyl = CCCCCCCCCCCCCCCCCC(=O)*; Palmitoyl = CCCCCCCCCCCCCCCC(=O)*; AEEA = NCCOCCOCC(=O)O; Aib = CC(C)(N)C(=O)O
Legend:
[1] = Solubility assessment (UPLC-UV); type: physicochemical; settings: acetate buffer pH 4.5, 2.7 mg/ml m-cresol (buffer system A), target 10 mg/ml
In short: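 Peptides at 10 mg/mL (purity-corrected, by UPLC/MS) in 100 mM acetate buffer pH 4.5 with 2.7 mg/ml m-Cresol, gently agitated 1 hour, then centrifuged 15 min at 2500 RCF. Supernatant, diluted 1:10, quantified by UPLC-UV peak area against a reference peptide standard curve, extinction-coefficient corrected.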

[2] = Chemical stability assessment (UPLC-UV, relative purity loss); type: physicochemical; settings: 1 mg/ml, 25 mM acetate buffer pH 4.5 with m-cresol (buffer system A)
In short: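 Peptide at 1 mg/mL (purity-corrected) in 25 mM acetate pH 4.5 with methionine, m-cresol and glycerol, sterile-filtered, stored 28 days at 40° C. Purity measured by UPLC-UV as peptide peak area fraction at start and after storage; value is relative percent purity loss.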

[3] = biological target: T1, human glucagon receptor (hGlucagon R) (Homo sapiens, UniProt P47871); test: cAMP response (HTRF) of HEK-293 cells stably expressing human glucagon receptor; type: cell-based; settings: Table 8; cAMP formation
T1 construct: expressed in transfected cells; host or cells: HEK-293
T1 sequence (P47871 26-477): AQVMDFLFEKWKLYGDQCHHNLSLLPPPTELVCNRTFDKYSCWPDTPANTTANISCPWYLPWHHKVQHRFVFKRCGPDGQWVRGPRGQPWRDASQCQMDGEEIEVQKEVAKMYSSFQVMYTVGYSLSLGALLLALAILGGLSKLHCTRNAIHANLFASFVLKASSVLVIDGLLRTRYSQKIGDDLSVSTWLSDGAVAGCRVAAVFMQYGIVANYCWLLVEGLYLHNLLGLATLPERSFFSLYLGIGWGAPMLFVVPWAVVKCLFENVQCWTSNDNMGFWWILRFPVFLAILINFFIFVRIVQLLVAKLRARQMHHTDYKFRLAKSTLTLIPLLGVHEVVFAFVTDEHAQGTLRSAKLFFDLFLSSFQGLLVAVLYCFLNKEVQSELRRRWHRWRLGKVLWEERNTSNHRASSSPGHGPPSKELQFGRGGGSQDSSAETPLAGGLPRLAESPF
Protocol: (§1) cAMP content of cells was determined using a kit from Cisbio Corp. (cat. no. 62AM4PEJ) based on HTRF (Homogenous Time Resolved Fluorescence). For preparation, cells were split into T175 culture flasks and grown overnight to near confluency in medium (DMEM/10% FBS). Medium was then removed and cells washed with PBS lacking calcium and magnesium, followed by proteinase treatment with accutase (Sigma-Aldrich cat. no. A6964). Detached cells were washed and resuspended in assay buffer (1×HBSS; 20 mM HEPES, 0.1% BSA, 2 mM IBMX) and cellular density determined. They were then diluted to 400000 cells/ml and 25 μl-aliquots dispensed into the wells of 96-well plates. For measurement, 25 μl of test compound in assay buffer was added to the wells, followed by incubation for 30 minutes at room temperature.
(§2) Potencies of peptidic compounds at the GLP-1, glucagon and GIP receptors were determined by exposing cells expressing human glucagon receptor (hGlucagon R), human GIP receptor (hGIP-R) or human GLP-1 receptor (hGLP-1 R) to the listed compounds at increasing concentrations and measuring the formed cAMP as described in Methods.

[4] = Thioflavin T (ThT) assay for physical stability (fibrillation); type: physicochemical; settings: 3 mg/ml, 100 mM acetate pH 4.5 with m-cresol, shaking at 37° C.
In short: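 Peptide at 3 mg/ml with 100 μM ThT in 100 mM acetate pH 4.5 with m-cresol, stressed at 37° C by cycles of 10 s shaking at 960 rpm and 50 s rest. Fluorescence read every 20 minutes, eight replicates; lag time in hours.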

[5] = biological target: T2, human GLP-1 receptor (hGLP-1 R) (Homo sapiens, UniProt P43220); test: cAMP response (HTRF) of HEK-293 cells stably expressing human GLP-1 receptor; type: cell-based; settings: Table 8; cAMP formation
T2 construct: expressed in transfected cells; host or cells: HEK-293
T2 sequence (P43220 24-463): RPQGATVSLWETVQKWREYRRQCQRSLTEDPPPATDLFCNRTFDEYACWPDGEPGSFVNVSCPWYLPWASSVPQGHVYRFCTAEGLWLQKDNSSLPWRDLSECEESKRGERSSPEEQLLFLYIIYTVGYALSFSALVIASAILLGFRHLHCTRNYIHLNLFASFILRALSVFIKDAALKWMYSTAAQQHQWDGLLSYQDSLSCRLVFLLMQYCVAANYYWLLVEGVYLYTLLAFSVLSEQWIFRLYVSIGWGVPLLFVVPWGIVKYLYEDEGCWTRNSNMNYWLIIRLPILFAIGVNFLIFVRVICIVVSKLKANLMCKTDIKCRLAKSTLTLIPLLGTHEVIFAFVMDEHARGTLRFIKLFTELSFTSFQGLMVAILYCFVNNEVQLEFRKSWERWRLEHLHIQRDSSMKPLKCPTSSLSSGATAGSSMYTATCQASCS
Protocol: as §1, §2

[6] = Dynamic light scattering (DLS), hydrodynamic radius as surrogate for interaction parameter kD; type: physicochemical; settings: for Delta Rh [nm] = Rh5 − Rh1: DLS buffer system A pH 4.5; for Rh1 [nm] c= 1 mg/ml / Rh5 [nm] c = 5 mg/ml: hydrodynamic radius, DLS buffer system A pH 4.5, DLS method C, 25° C.
Protocol: For every peptide solution, the hydrodynamic radius Rh and the diffusion constant D (related via the Stokes-Einstein equation) were determined as an average over triplicates. Both parameters were determined at different concentrations (e.g., Rh1 and D1: 1 mg/ml and Rh5 and D5: 5 mg/ml) in the same buffer system. The difference of these parameters between low and high peptide concentration is a surrogate for the DLS interaction parameter kD. Rh5<Rh1 or D5>D1 correspond to kD>0 and therefore to repulsive inter-particle interactions that result in improved physical (or colloidal) stability.
DLS buffer system A) 25 mM acetate buffer pH4.5, 3 mg/mL L-Methionine, 2.7 mg/mL m-cresol, 18 mg/mL Glycerol 85%
DLS Method C: DLS measurements were performed on a DynaPro Plate Reader II (Wyatt Technology, Santa Barbara, Calif., US) and using one of the following black, low volume, and non-treated plates: polystyrene 384 assay plate with clear bottom (Corning, N.Y., US), polystyrene 96 assay plate with clear bottom (Corning, N.Y., US), cyclo olefin polymer (COP) 384 assay plate with clear bottom (Aurora, Mont., US), or polystyrene 384 assay plate with clear bottom (Greiner Bio-One, Germany). The data were processed with the Dynamics software provided by Wyatt Technology. Parameters of the particle size distribution were determined with non-negatively constrained least squares (NNLS) methods using DynaLS algorithms. Measurements were taken at 25° C. with an 830 nm laser light source at an angle of 158°.
The hydrodynamic radius radius Rh of peptide samples was determined at different peptide concentrations (1 mg/ml and 5 mg/ml) in DLS buffer system A using DLS method C as described in Methods as surrogate for the DLS interaction parameter kD.

| Structure (SMILES) | solubility at 1 h [1] [µg/mL] | Chemical stability [relative purity loss 28 days 40° C.] (%) at pH 4.5 [2] [%] | EC50 [3] [nM] | Lag time before increase [4] [h] | EC50 [5] [nM] | Delta Rh [nm] = Rh5 − Rh1 [6] [nm] | Rh1 [nm] c= 1 mg/ml [6] [nm] | Rh5 [nm] c = 5 mg/ml [6] [nm] |
| --- | --- | --- | --- | --- | --- | --- | --- | --- |
| CCCCCCCCCCCCCCCC(=O)N[C@@H](CCC(=O)N[C@@H](CCC(=O)NCCCC[C@H](NC(=O)[C@H](CC(C)C)NC(=O)[C@H](CCCCN)NC(=O)[C@H](CO)NC(=O)[C@H](CC(C)C)NC(=O)[C@H](CC(=O)O)NC(=O)[C@H](CO)NC(=O)[C@@H](NC(=O)[C@H](Cc1ccccc1)NC(=O)[C@@H](NC(=O)CNC(=O)[C@H](CCC(N)=O)NC(=O)C(C)(C)NC(=O)[C@@H](N)Cc1c[nH]cn1)[C@@H](C)O)[C@@H](C)O)C(=O)N[C@@H](CCC(=O)O)C(=O)N[C@@H](CCCCN)C(=O)N[C@@H](CCC(N)=O)C(=O)N[C@@H](CCCNC(=N)N)C(=O)N[C@@H](CCC(N)=O)C(=O)NC(C)(C)C(=O)N[C@@H](CCC(=O)O)C(=O)N[C@@H](Cc1ccccc1)C(=O)N[C@H](C(=O)N[C@@H](CCC(=O)O)C(=O)N[C@@H](Cc1c[nH]c2ccccc12)C(=O)N[C@@H](CC(C)C)C(=O)N[C@@H](CCCCN)C(=O)N[C@@H](C)C(=O)NCC(=O)NCC(=O)N[C@@H](Cc1c[nH]cn1)C(=O)N1CCC[C@H]1C(=O)N[C@@H](CO)C(=O)NC(C)(C)C(=O)N[C@@H](CCCCN)C(=O)N1CCC[C@H]1C(=O)N1CCC[C@H]1C(=O)N1CCC[C@H]1C(=O)N[C@@H](CCCCN)C(N)=O)[C@@H](C)CC)C(=O)O)C(=O)O [SEQ ID NO: 12, H-Aib-Q-G-T-F-T-S-D-L-S-K-L-K[gGlu-gGlu-Palm]-E-K-Q-R-Q-Aib-E-F-I-E-W-L-K-A-G-G-H-P-S-Aib-K-P-P-P-K-NH2] | > 9300 | 5.4 | 0.022 | >45 |  |  |  |  |
| CCCCCCCCCCCCCCCC(=O)N[C@@H](CCC(=O)NCCCC[C@H](NC(=O)[C@H](CC(C)C)NC(=O)[C@H](CCCCN)NC(=O)[C@H](CO)NC(=O)[C@H](CC(C)C)NC(=O)[C@H](CC(=O)O)NC(=O)[C@H](CO)NC(=O)[C@@H](NC(=O)[C@H](Cc1ccccc1)NC(=O)[C@@H](NC(=O)CNC(=O)[C@H](CCC(N)=O)NC(=O)C(C)(C)NC(=O)[C@@H](N)Cc1c[nH]cn1)[C@@H](C)O)[C@@H](C)O)C(=O)N[C@@H](CCC(=O)O)C(=O)N[C@@H](CCCCN)C(=O)N[C@@H](CCC(N)=O)C(=O)N[C@@H](CCCNC(=N)N)C(=O)N[C@@H](CCC(N)=O)C(=O)NC(C)(C)C(=O)N[C@@H](CCC(=O)O)C(=O)N[C@@H](Cc1ccccc1)C(=O)N[C@H](C(=O)N[C@@H](CCC(=O)O)C(=O)N[C@@H](Cc1c[nH]c2ccccc12)C(=O)N[C@@H](CC(C)C)C(=O)N[C@@H](CCCCN)C(=O)N[C@@H](C)C(=O)NCC(=O)NCC(=O)N1CCC[C@H]1C(=O)N1CCC[C@H]1C(=O)N[C@@H](CO)C(=O)NC(C)(C)C(=O)N[C@@H](CCCCN)C(=O)N1CCC[C@H]1C(=O)N1CCC[C@H]1C(=O)N1CCC[C@H]1C(=O)N[C@@H](CCCCN)C(N)=O)[C@@H](C)CC)C(=O)O [SEQ ID NO: 14, H-Aib-Q-G-T-F-T-S-D-L-S-K-L-K[gGlu-Palm]-E-K-Q-R-Q-Aib-E-F-I-E-W-L-K-A-G-G-P-P-S-Aib-K-P-P-P-K-NH2] | > 9300 | 5.5 |  |  | 0.0057 | −0.2 | 2.7 | 2.4 |
| CCCCCCCCCCCCCCCCCC(=O)N[C@@H](CCC(=O)NCCCC[C@H](NC(=O)[C@H](CC(C)C)NC(=O)[C@H](CCCCN)NC(=O)[C@H](CO)NC(=O)[C@H](CC(C)C)NC(=O)[C@H](CC(=O)O)NC(=O)[C@H](CO)NC(=O)[C@@H](NC(=O)[C@H](Cc1ccccc1)NC(=O)[C@@H](NC(=O)CNC(=O)[C@H](CCC(N)=O)NC(=O)C(C)(C)NC(=O)[C@@H](N)Cc1c[nH]cn1)[C@@H](C)O)[C@@H](C)O)C(=O)N[C@@H](CCC(=O)O)C(=O)N[C@@H](CCCCN)C(=O)N[C@@H](CCC(N)=O)C(=O)N[C@@H](CCCNC(=N)N)C(=O)N[C@@H](CCC(N)=O)C(=O)NC(C)(C)C(=O)N[C@@H](CCC(=O)O)C(=O)N[C@@H](Cc1ccccc1)C(=O)N[C@H](C(=O)N[C@@H](CCC(=O)O)C(=O)N[C@@H](Cc1c[nH]c2ccccc12)C(=O)N[C@@H](CC(C)C)C(=O)N[C@@H](CCCCN)C(=O)N[C@@H](C)C(=O)NCC(=O)NCC(=O)N1CCC[C@H]1C(=O)N1CCC[C@H]1C(=O)N[C@@H](CO)C(=O)NC(C)(C)C(=O)N[C@@H](CCCCN)C(=O)N1CCC[C@H]1C(=O)N1CCC[C@H]1C(=O)N1CCC[C@H]1C(=O)N[C@@H](CCCCN)C(N)=O)[C@@H](C)CC)C(=O)O [SEQ ID NO: 15, H-Aib-Q-G-T-F-T-S-D-L-S-K-L-K[gGlu-Stea]-E-K-Q-R-Q-Aib-E-F-I-E-W-L-K-A-G-G-P-P-S-Aib-K-P-P-P-K-NH2] (H-H[Aib]QGTFTSDLSKLK([γGlu-Stearoyl])EKQRQ[Aib]EFIEWLKAGGPPS[Aib]KPPPK-NH2) | > 8900 | 5.6 |  |  | 0.0057 | −0.2 | 2.7 | 2.6 |
| CCCCCCCCCCCCCCCC(=O)NCCOCCOCC(=O)N[C@@H](CCC(=O)N[C@@H](CCC(=O)NCCCC[C@H](NC(=O)[C@H](CC(C)C)NC(=O)[C@H](CCCCN)NC(=O)[C@H](CO)NC(=O)[C@H](CC(C)C)NC(=O)[C@H](CC(=O)O)NC(=O)[C@H](CO)NC(=O)[C@@H](NC(=O)[C@H](Cc1ccccc1)NC(=O)[C@@H](NC(=O)CNC(=O)[C@H](CCC(N)=O)NC(=O)C(C)(C)NC(=O)[C@@H](N)Cc1c[nH]cn1)[C@@H](C)O)[C@@H](C)O)C(=O)N[C@@H](CCC(=O)O)C(=O)N[C@@H](CCCCN)C(=O)N[C@@H](CCC(N)=O)C(=O)N[C@@H](CCCNC(=N)N)C(=O)N[C@@H](CCC(N)=O)C(=O)NC(C)(C)C(=O)N[C@@H](CCC(=O)O)C(=O)N[C@@H](Cc1ccccc1)C(=O)N[C@H](C(=O)N[C@@H](CCC(=O)O)C(=O)N[C@@H](Cc1c[nH]c2ccccc12)C(=O)N[C@@H](CC(C)C)C(=O)N[C@@H](CCCCN)C(=O)N[C@@H](C)C(=O)N[C@H](C)C(=O)NCC(=O)N[C@@H](Cc1c[nH]cn1)C(=O)N1CCC[C@H]1C(=O)N[C@@H](CO)C(=O)NC(C)(C)C(=O)N[C@@H](CCCCN)C(=O)N1CCC[C@H]1C(=O)N1CCC[C@H]1C(=O)N1CCC[C@H]1C(=O)N[C@@H](CCCCN)C(N)=O)[C@@H](C)CC)C(=O)O)C(=O)O [SEQ ID NO: 17, H-Aib-Q-G-T-F-T-S-D-L-S-K-L-K[gGlu-gGlu-AEEA-Palm]-E-K-Q-R-Q-Aib-E-F-I-E-W-L-K-A-dAla-G-H-P-S-Aib-K-P-P-P-K-NH2] (H-H[Aib]QGTFTSDLSKLK([γGlu-γGlu-AEEA-Palmitoyl])EKQRQ[Aib]EFIEWLKA[dA]GHPS[Aib]KPPPK-NH2) | > 9200 | 6.4 | 0.022 | >45 |  | −0.5 | 2.9 | 2.4 |

Source: patent publication US10519211B2, “Compounds as peptidic GLP1/glucagon/GIP receptor agonists” (SANOFI, priority 2016, dated 2019)
